Test system: Rice Green Leaf Hoppers (Nephoteftix Virescens)
Assay: Activity against rice green leaf hoppers, foliar spray on rice plants
Assay type: in vivo
Conditions: 300 ppm; after 72 hours
Procedure: Leaf hopper and plant hoppers adults used for bioassay were obtained from a colony maintained continuously under laboratory conditions. For testing purposes, the test compound was diluted in 300 ppm (wt compound:vol diluent) in a 1:1 mixture of acetone:water, plus 0.1% EL 620 surfactant.
Hopper activity was evaluated using the foliar spray technique. Pofted rice plants (2-3 week old, Variety TN-1) were cleaned and dried prior to application. All plants were treated inside the fume hood using DeVilbiss atomizer at 25 psi with a spray volume of 5 ml/plant. To ensure uniform spray distribution, plants were placed in a rotating flat form inside the fume hood. Treated plants were then placed inside the holding room and allowed to dry for 2 hours. Each plant was caged using Mylar cages (4 inches diameter×19 inches in height) and inoculated with 10 adults hoppers. All test plants were held under continuous light and a temperature of about 28° C. for duration of the assay. Percent mortality was observed after 72 hours.

Cc1ccc(-c2ccc(S(=O)(=O)NCc3ccnc4ccccc34)cc2)c(Cl)c1 [I-32]
mortality: ≥ 75%

From patent US20090029855A1, “Quinoline Derivatives and Their Use as Pesticides” (priority 2006, published 2009)
